Measurements: patent publication US10391103B2, “Ferroporphyrin solid dispersion and preparation method thereof” (Sinotherapeutics Inc., priority 2013, dated 2019)

Assays:
[1] = rats; cited from earlier work
[2] = Stability test for the solid dispersions (content by HPLC)

Content, stability study 0 day ([2]; open, 25° C. 60% RH): 100.9%
Content, stability study 1 day ([2]; open, 25° C. 60% RH): 98.0%
Content, stability study 3 days ([2]; open, 25° C. 60% RH): 98.7%
Content, stability study 7 days ([2]; open, 25° C. 60% RH): 100.9%
Content, stability study 35 days ([2]; open, 25° C. 60% RH): 98.8%
Content, stability study 0 day ([2]; open, 40° C. 75% RH): 100.9%
Content, stability study 1 day ([2]; open, 40° C. 75% RH): 99.0%
Content, stability study 3 days ([2]; open, 40° C. 75% RH): 99.8%
Content, stability study 7 days ([2]; open, 40° C. 75% RH): 100.8%
Content, stability study 35 days ([2]; open, 40° C. 75% RH): 100.6%
Content, stability study 0 day ([2]; sealed, 25° C. 60% RH): 100.9%
Content, stability study 1 day ([2]; sealed, 25° C. 60% RH): 99.5%
Content, stability study 3 days ([2]; sealed, 25° C. 60% RH): 102.0%
Content, stability study 7 days ([2]; sealed, 25° C. 60% RH): 100.5%
Content, stability study 14 days ([2]; sealed, 25° C. 60% RH): 98.9%
Content, stability study 35 days ([2]; sealed, 25° C. 60% RH): 102.2%
Content, stability study 0 day ([2]; sealed, 40° C. 75% RH): 100.9%
Content, stability study 1 day ([2]; sealed, 40° C. 75% RH): 99.6%
Content, stability study 3 days ([2]; sealed, 40° C. 75% RH): 102.7%
Content, stability study 7 days ([2]; sealed, 40° C. 75% RH): 100.8%
Content, stability study 14 days ([2]; sealed, 40° C. 75% RH): 99.2%
Content, stability study 35 days ([2]; sealed, 40° C. 75% RH): 102.7%
Substance: porphyrin iron [API]
absolute oral bioavailability [1]: 0.93%
